Test results reported in US10745382B2 (BRISTOL-MYERS SQUIBB COMPANY, priority 2015, dated 2020).
Where a name gives a salt, the structure may show the parent alone. Read-outs that look alike come from different tables or passages of the source.

Target: T1, PD-1/PD-L1 (Homo sapiens, UniProt Q9NZQ7)
T1 construct: made in house; host or cells: HEK293T
Assay: PD-1/PD-L1 Homogenous Time-Resolved Fluorescence (HTRF) binding assay
Settings: PD-L1-His 10 nM, PD-1-Ig 20 nM, read-out: Range or IC50
Method in brief: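 Binding measured in dPBS with 0.1% BSA and 0.05% Tween-20, detected by HTRF with europium cryptate anti-Ig (1 nM final) and APC anti-His (20 nM final) added over the binding reaction. Counter-assays used human PD-1-Ig/PD-L2-His (20 and 5 nM) and CD80-His/PD-L1-Ig (100 and 10 nM).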

T1 sequence (Q9NZQ7 with tags, fused parts or gaps): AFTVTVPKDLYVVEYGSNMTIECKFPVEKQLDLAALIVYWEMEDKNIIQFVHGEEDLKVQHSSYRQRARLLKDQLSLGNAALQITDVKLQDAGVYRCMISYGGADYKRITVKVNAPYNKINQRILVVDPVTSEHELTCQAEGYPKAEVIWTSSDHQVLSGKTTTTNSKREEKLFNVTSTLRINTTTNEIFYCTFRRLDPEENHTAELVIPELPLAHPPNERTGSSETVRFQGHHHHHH

Work on COc1cc(OCc2cccc(-c3cccc(OCCCN4CC[C@@H](O)C4)c3C)c2C)c(Cl)cc1CN[C@@H](CO)C(=O)O [Example 3035, (2S)-2-((5-chloro-4-((3′-(3-((R)-3-hydroxypyrrolidin-1-yl)propoxy)-2,2′-dimethyl-[1,1′-biphenyl]-3-yl)methoxy)-2-methoxybenzyl)amino)-3-hydroxypropanoic Acid] yielded an IC50 (value given as range class) of 0.21 to 10 nM.
For COc1cc(OCc2cccc(-c3cccc(OCCCN4CC[C@@H](O)C4)c3C)c2C)c(Cl)cc1CN1CCCC[C@H]1C(=O)O [Example 3036, (2S)-1-(5-chloro-4-((3′-(3-((R)-3-hydroxypyrrolidin-1-yl)propoxy)-2,2′-dimethyl-[1,1′-biphenyl]-3-yl)methoxy)-2-methoxybenzyl)piperidine-2-carboxylic Acid], the IC50 (value given as range class) was 0.21 to 10 nM.
In the case of Cc1c(COc2cc(OCc3cncc(C#N)c3)c(CN[C@@](C)(CO)C(=O)O)cc2Cl)cccc1-c1cccc(OCCCN2CCC(O)(c3ccccc3)C2)c1C (stereo partly drawn) [Example 3037, (2S)-2-((5-chloro-2-((5-cyanopyridin-3-yl)methoxy)-4-((3′-(3-(3-hydroxy-3-phenylpyrrolidin-1-yl)propoxy)-2,2′-dimethyl-[1,1′-biphenyl]-3-yl)methoxy)benzyl)amino)-3-hydroxy-2-methylpropanoic Acid], the IC50 (value given as range class) is reported as 0.21 to 10 nM.
Cc1c(COc2cc(OCc3cncc(C#N)c3)c(CN[C@](C)(CO)C(=O)O)cc2Cl)cccc1-c1cccc(OCCCN2CCC(O)(c3ccccc3)C2)c1C (stereo partly drawn) [Example 3038, (2R)-2-((5-chloro-2-((5-cyanopyridin-3-yl)methoxy)-4-((3′-(3-(3-hydroxy-3-phenylpyrrolidin-1-yl)propoxy)-2,2′-dimethyl-[1,1′-biphenyl]-3-yl)methoxy)benzyl)amino)-3-hydroxy-2-methylpropanoic Acid] was tested, and the IC50 (value given as range class) was 0.21 to 10 nM.
In the case of Cc1c(COc2cc(OCc3cncc(C#N)c3)c(CN[C@@H](CO)C(=O)O)cc2Cl)cccc1-c1cccc(OCCCN2CCC(O)(c3ccccc3)C2)c1C (stereo partly drawn) [Example 3039, (2S)-2-((5-chloro-2-((5-cyanopyridin-3-yl)methoxy)-4-((3′-(3-(3-hydroxy-3-phenylpyrrolidin-1-yl)propoxy)-2,2′-dimethyl-[1,1′-biphenyl]-3-yl)methoxy)benzyl)amino)-3-hydroxypropanoic Acid], the IC50 (value given as range class) is reported as 0.21 to 10 nM.
With Cc1c(COc2cc(OCc3cncc(C#N)c3)c(CN3CCCC[C@H]3C(=O)O)cc2Cl)cccc1-c1cccc(OCCCN2CCC(O)(c3ccccc3)C2)c1C (stereo partly drawn) [Example 3040, (2S)-1-(5-chloro-2-((5-cyanopyridin-3-yl)methoxy)-4-((3′-(3-(3-hydroxy-3-phenylpyrrolidin-1-yl)propoxy)-2,2′-dimethyl-[1,1′-biphenyl]-3-yl)methoxy)benzyl)piperidine-2-carboxylic Acid] the IC50 (value given as range class) was 0.21 to 10 nM.
For Cc1c(COc2cc(OCc3cncc(C#N)c3)c(CN[C@@](C)(CO)C(=O)O)cc2Cl)cccc1-c1ccc2c(c1C)OCCO2 [Example 3041, (2S)-2-((5-chloro-2-((5-cyanopyridin-3-yl)methoxy)-4-((2-methyl-3-(5-methyl-2,3-dihydrobenzo[b][1,4]dioxin-6-yl)benzyl)oxy)benzyl)amino)-3-hydroxy-2-methylpropanoic Acid], the IC50 (value given as range class) was 0.21 to 10 nM.
In the case of Cc1c(COc2cc(OCc3cncc(C#N)c3)c(CN[C@](C)(CO)C(=O)O)cc2Cl)cccc1-c1ccc2c(c1C)OCCO2 [Example 3042, (2R)-2-((5-chloro-2-((5-cyanopyridin-3-yl)methoxy)-4-((2-methyl-3-(5-methyl-2,3-dihydrobenzo[b][1,4]dioxin-6-yl)benzyl)oxy)benzyl)amino)-3-hydroxy-2-methylpropanoic Acid], the IC50 (value given as range class) is reported as 0.21 to 10 nM.
For Cc1c(COc2cc(OCc3cncc(C#N)c3)c(CN[C@@H](CO)C(=O)O)cc2Cl)cccc1-c1ccc2c(c1C)OCCO2 [Example 3043, (2S)-2-((5-chloro-2-((5-cyanopyridin-3-yl)methoxy)-4-((2-methyl-3-(5-methyl-2,3-dihydrobenzo[b][1,4]dioxin-6-yl)benzyl)oxy)benzyl)amino)-3-hydroxypropanoic Acid], the IC50 (numeric IC50) was 3 nM.
Cc1c(COc2cc(OCc3cncc(C#N)c3)c(CN3CCCC[C@H]3C(=O)O)cc2Cl)cccc1-c1ccc2c(c1C)OCCO2 [Example 3044, (2S)-1-(5-chloro-2-((5-cyanopyridin-3-yl)methoxy)-4-((2-methyl-3-(5-methyl-2,3-dihydrobenzo[b][1,4]dioxin-6-yl)benzyl)oxy)benzyl)piperidine-2-carboxylic Acid] gave an IC50 (value given as range class) of 0.21 to 10 nM.
For Cc1c(COc2cc(OCc3cncc(C#N)c3)c(CN[C@](C)(CO)C(=O)O)cc2Cl)cccc1-c1cc(C#Cc2ccccc2)cc(OCCCN2CC[C@@H](O)C2)c1 [Example 3045, (R)-2-((5-chloro-2-((5-cyanopyridin-3-yl)methoxy)-4-((3′-(3-((R)-3-hydroxypyrrolidin-1-yl)propoxy)-2-methyl-5′-(phenylethynyl)-[1,1′-biphenyl]-3-yl)methoxy)benzyl)amino)-3-hydroxy-2-methylpropanoic Acid], the IC50 (value given as range class) was 2010 to 10000 nM.
Cc1c(COc2cc(OCc3cncc(C#N)c3)c(CN3CCCC[C@H]3C(=O)O)cc2Cl)cccc1-c1cccc(OCCCN2C[C@H]3CC[C@@H](C2)O3)c1C [Example 3046, (S)-1-(4-((3′-(3-((1R,5S)-8-oxa-3-azabicyclo[3.2.1]octan-3-yl)propoxy)-2,2′-dimethyl-[1,1′-biphenyl]-3-yl)methoxy)-5-chloro-2-((5-cyanopyridin-3-yl)methoxy)benzyl)piperidine-2-carboxylic Acid] showed an IC50 (value given as range class) of 0.21 to 10 nM.
In the case of Cc1c(COc2cc(OCc3cncc(C#N)c3)c(CN3CCCC[C@H]3C(=O)O)cc2Cl)cccc1-c1cccc(OCCCN2CCO[C@@H](CO)C2)c1C [Example 3047, (S)-1-(5-chloro-2-((5-cyanopyridin-3-yl)methoxy)-4-((3′-(3-((R)-2-(hydroxymethyl)morpholino)propoxy)-2,2′-dimethyl-[1,1′-biphenyl]-3-yl)methoxy)benzyl)piperidine-2-carboxylic Acid], the IC50 (value given as range class) is reported as 0.21 to 10 nM.
Cc1c(COc2cc(OCc3cncc(C#N)c3)c(CN3CCCC[C@H]3C(=O)O)cc2Cl)cccc1-c1cccc(OCCCN2[C@@H]3CC[C@H]2CC(O)C3)c1C (stereo partly drawn) [Example 3048, (2S)-1-(5-chloro-2-((5-cyanopyridin-3-yl)methoxy)-4-((3′-(3-((1R,5S)-3-hydroxy-8-azabicyclo[3.2.1]octan-8-yl)propoxy)-2,2′-dimethyl-[1,1′-biphenyl]-3-yl)methoxy)benzyl)piperidine-2-carboxylic Acid] gave an IC50 (value given as range class) of 0.21 to 10 nM.
For Cc1c(COc2cc(OCc3cncc(C#N)c3)c(CN3CCCC[C@H]3C(=O)O)cc2Cl)cccc1-c1cccc(OCCCN2C[C@@H](C)O[C@@H](C)C2)c1C [Example 3049, (S)-1-(5-chloro-2-((5-cyanopyridin-3-yl)methoxy)-4-((3′-(3-((2S,6R)-2,6-dimethylmorpholino)propoxy)-2,2′-dimethyl-[1,1′-biphenyl]-3-yl)methoxy)benzyl)piperidine-2-carboxylic Acid], the IC50 (value given as range class) was 0.21 to 10 nM.
With Cc1c(COc2cc(OCc3cncc(C#N)c3)c(CN3CCCC[C@H]3C(=O)O)cc2Cl)cccc1-c1cccc(OCCCN2CCOCC2CO)c1C (stereo partly drawn) [Example 3050, (2S)-1-(5-chloro-2-((5-cyanopyridin-3-yl)methoxy)-4-((3′-(3-(3-(hydroxymethyl)morpholino)propoxy)-2,2′-dimethyl-[1,1′-biphenyl]-3-yl)methoxy)benzyl)piperidine-2-carboxylic Acid] the IC50 (value given as range class) was 0.21 to 10 nM.
For Cc1c(COc2cc(OCc3cncc(C#N)c3)c(CN3CCCC[C@H]3C(=O)O)cc2Cl)cccc1-c1cccc(OCCCN2[C@@H]3CC[C@H]2COC3)c1C [Example 3051, (S)-1-(4-((3′-(3-((1R,5S)-3-oxa-8-azabicyclo[3.2.1]octan-8-yl)propoxy)-2,2′-dimethyl-[1,1′-biphenyl]-3-yl)methoxy)-5-chloro-2-((5-cyanopyridin-3-yl)methoxy)benzyl)piperidine-2-carboxylic Acid], the IC50 (value given as range class) was 0.21 to 10 nM.
Cc1c(COc2cc(OCc3cncc(C#N)c3)c(CN3CCCC[C@H]3C(=O)O)cc2Cl)cccc1-c1cccc(OCCCN2C3COCC2COC3)c1C [Example 3052, (S)-1-(4-((3′-(3-((1s,5s)-3,7-dioxa-9-azabicyclo[3.3.1]nonan-9-yl)propoxy)-2,2′-dimethyl-[1,1′-biphenyl]-3-yl)methoxy)-5-chloro-2-((5-cyanopyridin-3-yl)methoxy)benzyl)piperidine-2-carboxylic Acid] gave an IC50 (value given as range class) of 0.21 to 10 nM.
Work on COC(=O)[C@@H]1CCCCN1Cc1cc(Cl)c(OCc2cccc(-c3cccc(OCCCN4CCOCC4)c3C)c2C)cc1OCc1cccc(C#N)c1 [Example 3053, (S)-methyl 1-(5-chloro-2-((3-cyanobenzyl)oxy)-4-((2,2′-dimethyl-3′-(3-morpholinopropoxy)-[1,1′-biphenyl]-3-yl)methoxy)benzyl)piperidine-2-carboxylate, 2 TFA] yielded an IC50 (value given as range class) of 100 to 2000 nM.
Cc1c(COc2cc(OCc3cccc(C#N)c3)c(CN3CCCC[C@H]3C(=O)O)cc2Cl)cccc1-c1cccc(OCCCN2[C@@H]3CC[C@H]2COC3)c1C [Example 3055, (S)-1-(4-((3′-(3-((1R,5S)-3-oxa-8-azabicyclo[3.2.1]octan-8-yl)propoxy)-2,2′-dimethyl-[1,1′-biphenyl]-3-yl)methoxy)-5-chloro-2-((3-cyanobenzyl)oxy)benzyl)piperidine-2-carboxylic Acid] showed an IC50 (value given as range class) of 0.21 to 10 nM.
Work on Cc1c(COc2cc(OCc3cncc(C#N)c3)c(CN3CCCC[C@H]3C(=O)O)cc2Cl)cccc1-c1cccc(OCCCN2CCOC(c3ccccc3)C2)c1C (stereo partly drawn) [Example 3056, (2S)-1-(5-chloro-2-((5-cyanopyridin-3-yl)methoxy)-4-((2,2′-dimethyl-3′-(3-(2-phenylmorpholino)propoxy)-[1,1′-biphenyl]-3-yl)methoxy)benzyl)piperidine-2-carboxylic Acid] yielded an IC50 (value given as range class) of 0.21 to 10 nM.
